Measurements reported in patent US20090247559A1 (Exelixis, Inc., priority 2007, published 2009).

Assays:
[1] = target: PIM (PIM-1, PIM-2, and/or PIM-3); assay: PIM-1, PIM-2 and PIM-3 inhibition, biochemical chemiluminescence assays (Kinase Glo, IC50 determination); details: Table 1 activity class; PIM refers to PIM-1, PIM-2, and/or PIM-3; read-out: PIM IC50 (Activity B)
CK2 = CK2 (Homo sapiens, UniProt P68400); assay: CK2 inhibition, biochemical chemiluminescence holoenzyme assay (Kinase Glo, IC50 determination); details: Table 1 activity class; symbol given only if active; read-out: CK2 IC50 (Activity C)
Summary of the method: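 Holoenzyme CK2 assay; compounds pre-incubated with substrate and enzyme, then reacted 150 min at 24-27° C. Remaining ATP measured as luminescence with Kinase Glo, and IC50 derived from the signal.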

Chain of CK2 (P68400 whole entry): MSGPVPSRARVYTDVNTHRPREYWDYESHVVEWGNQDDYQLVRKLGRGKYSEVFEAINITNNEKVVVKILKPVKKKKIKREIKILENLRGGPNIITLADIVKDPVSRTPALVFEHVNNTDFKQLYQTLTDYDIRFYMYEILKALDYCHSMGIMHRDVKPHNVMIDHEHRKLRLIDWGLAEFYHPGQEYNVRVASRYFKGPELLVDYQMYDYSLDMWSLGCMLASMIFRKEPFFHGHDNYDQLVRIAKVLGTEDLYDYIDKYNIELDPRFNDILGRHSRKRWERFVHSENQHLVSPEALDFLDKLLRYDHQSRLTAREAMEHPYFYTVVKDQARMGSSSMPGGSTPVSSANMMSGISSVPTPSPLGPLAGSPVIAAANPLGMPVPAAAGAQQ
Chain of CK2 (P67870 whole entry partner): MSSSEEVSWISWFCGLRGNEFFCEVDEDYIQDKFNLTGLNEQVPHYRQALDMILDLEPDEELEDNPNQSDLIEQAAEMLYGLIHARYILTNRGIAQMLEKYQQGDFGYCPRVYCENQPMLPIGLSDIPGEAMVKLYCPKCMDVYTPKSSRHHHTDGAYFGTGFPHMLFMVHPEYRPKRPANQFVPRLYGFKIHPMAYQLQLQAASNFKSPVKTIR

| Compound | IC50 [1] | IC50 (CK2) |
| --- | --- | --- |
| O=C(Nc1ccc(-c2nc3c(oc4ccc(Br)cc43)c(=O)[nH]2)c(Cl)c1)c1ccc(CO)cn1 [Compound 345, N-[4-(8-bromo-4-oxo-3,4-dihydro[1]benzofuro[3,2-d]pyrimidin-2-yl)-3-chlorophenyl]-5-(hydroxymethyl)pyridine-2-carboxamide] | < 10 µM | < 10 µM |
| O=c1[nH]c(-c2cc(Cl)ccc2Cl)nc2c1oc1ccc(Br)cc12 [Compound 37, 8-Bromo-2-(2,5-dichlorophenyl)[1]benzofuro[3,2-d]pyrimidin-4(3H)-one] | < 10 µM | < 10 µM |
| O=C1CC(O)CN1Cc1nc2c(oc3ccc(Br)cc32)c(=O)[nH]1 (stereo not drawn) [Compound 286, 8-bromo-2-[(4-hydroxy-2-oxopyrrolidin-1-yl)methyl][1]benzofuro[3,2-d]pyrimidin-4(3H)-one] | < 10 µM | < 10 µM |
| CC(=O)N1CCC(c2nc3c(oc4ccc(Br)cc43)c(=O)[nH]2)CC1 [Compound 203, 2-(1-acetylpiperidin-4-yl)-8-bromo[1]benzofuro[3,2-d]pyrimidin-4(3H)-one] | < 10 µM | < 10 µM |
| O=c1[nH]c(CN2CC[C@H](O)C2)nc2c1oc1ccc(C#CCO)cc12 [Compound 454, 8-(3-hydroxyprop-1-yn-1-yl)-2-{[(3S)-3-hydroxypyrrolidin-1-yl]methyl}[1]benzofuro[3,2-d]pyrimidin-4(3H)-one] | < 10 µM | < 10 µM |
| O=c1[nH]c(CN2CC[C@H](O)C2)nc2c1oc1ccc(NCc3ccc(F)cc3F)cc12 [Compound 465, 8-{[(2,4-difluorophenyl)methyl]amino}-2-{[(3S)-3-hydroxypyrrolidin-1-yl]methyl}[1]benzofuro[3,2-d]pyrimidin-4(3H)-one] | < 10 µM | < 10 µM |
| CN(C)CCCCNc1ccc(-c2nc3c(oc4ccc(Br)cc43)c(=O)[nH]2)c(Cl)c1 [Compound 136, 8-bromo-2-(2-chloro-4-{[4-(dimethylamino)butyl]amino}phenyl)[1]benzofuro[3,2-d]pyrimidin-4(3H)-one] | < 10 µM | < 10 µM |
| O=C(Cc1ccccc1)N1CCC(c2nc3c(oc4ccc(Br)cc43)c(=O)[nH]2)CC1 [Compound 237, 8-bromo-2-[1-(phenylacetyl)piperidin-4-yl][1]benzofuro[3,2-d]pyrimidin-4(3H)-one] | < 10 µM | < 10 µM |
| Nc1cc(C(=O)Nc2ccc(-c3nc4c(oc5ccc(Br)cc54)c(=O)[nH]3)c(Cl)c2)ccn1 [Compound 284, 2-amino-N-[4-(8-bromo-4-oxo-3,4-dihydro[1]benzofuro[3,2-d]pyrimidin-2-yl)-3-chlorophenyl]pyridine-4-carboxamide] | < 10 µM | < 10 µM |
| COc1ccc(CNc2ccc3oc4c(=O)[nH]c(CN5CC[C@H](O)C5)nc4c3c2)cc1 [Compound 468, 2-{[(3S)-3-hydroxypyrrolidin-1-yl]methyl}-8-({[4-(methyloxy)phenyl]methyl}amino)[1]benzofuro[3,2-d]pyrimidin-4(3H)-one] | < 10 µM | < 10 µM |
| COc1ccc(CCNc2ccc3oc4c(=O)[nH]c(CN5CC[C@H](O)C5)nc4c3c2)cc1OC [Compound 474, 8-({2-[3,4-bis(methyloxy)phenyl]ethyl}amino)-2-{[(3S)-3-hydroxypyrrolidin-1-yl]methyl}[1]benzofuro[3,2-d]pyrimidin-4(3H)-one] | < 10 µM | < 10 µM |
| CN1CCN(c2ccc(NCc3nc4c(oc5ccc(Br)cc54)c(=O)[nH]3)cc2)CC1 [Compound 75, 8-bromo-2-({[4-(4-methylpiperazin-1-yl)phenyl]amino}methyl)[1]benzofuro[3,2-d]pyrimidin-4(3H)-one] | < 10 µM | < 10 µM |
| CCc1ccccc1-c1nc2c(oc3ccc(Br)cc32)c(=O)[nH]1 [Compound 77, 8-bromo-2-(2-ethylphenyl)[1]benzofuro[3,2-d]pyrimidin-4(3H)-one] | < 10 µM | < 10 µM |
| O=c1[nH]c(CN2CC[C@H](O)C2)nc2c1oc1ccc(NCc3cccc(C(F)(F)F)c3)cc12 [Compound 464, 2-{[(3S)-3-hydroxypyrrolidin-1-yl]methyl}-8-({[3-(trifluoromethyl)phenyl]methyl}amino)[1]benzofuro[3,2-d]pyrimidin-4(3H)-one] | < 10 µM | < 10 µM |
| C[C@H](c1ccccc1)N1C[C@H](c2nc3c(oc4ccc(Br)cc43)c(=O)[nH]2)CC1=O [Compound 282, 8-bromo-2-{(3R)-5-oxo-1-[(1R)-1-phenylethyl]pyrrolidin-3-yl}[1]benzofuro[3,2-d]pyrimidin-4(3H)-one] | < 10 µM | < 10 µM |
| COc1ccc(F)c(-c2nc3c(oc4ccc(Br)cc43)c(=O)[nH]2)c1 [Compound 67, 8-bromo-2-[2-fluoro-5-(methyloxy)phenyl][1]benzofuro[3,2-d]pyrimidin-4(3H)-one] | < 10 µM | < 10 µM |
| CN(C)CCCC(=O)N1CCC(c2nc3c(oc4ccc(Br)cc43)c(=O)[nH]2)CC1 [Compound 207, 8-bromo-2-{1-[4-(dimethylamino)butanoyl]piperidin-4-yl}[1]benzofuro[3,2-d]pyrimidin-4(3H)-one] | < 10 µM | < 10 µM |
| Cc1cc(NC(=O)CN(C)C)ccc1-c1nc2c(oc3ccc(Br)cc32)c(=O)[nH]1 [Compound 62, N-[4-(8-bromo-4-oxo-3,4-dihydro[1]benzofuro[3,2-d]pyrimidin-2-yl)-3-methylphenyl]-N′2′,N′2′-dimethylglycinamide] | < 10 µM | < 10 µM |
| O=C(c1ccccc1)N1CCC(c2nc3c(oc4ccc(Br)cc43)c(=O)[nH]2)CC1 [Compound 234, 8-bromo-2-[1-(phenylcarbonyl)piperidin-4-yl][1]benzofuro[3,2-d]pyrimidin-4(3H)-one] | < 10 µM | < 10 µM |
| CC(C)(CN1CCCC1)NCc1nc2c(oc3ccc(Br)cc32)c(=O)[nH]1 [Compound 190, 8-bromo-2-{[(1,1-dimethyl-2-pyrrolidin-1-ylethyl)amino]methyl}[1]benzofuro[3,2-d]pyrimidin-4(3H)-one] | < 10 µM | < 10 µM |
| CC(C)(C)OC(=O)N1CCOC(c2nc3c(oc4ccc(Br)cc43)c(=O)[nH]2)C1 (stereo not drawn) [Compound 297, 1,1-Dimethylethyl 2-(8-bromo-4-oxo-3,4-dihydro[1]benzofuro[3,2-d]pyrimidin-2-yl)morpholine-4-carboxylate] | < 10 µM | < 10 µM |
| O=C(C1CCOC1)N1CCC(c2nc3c(oc4ccc(Br)cc43)c(=O)[nH]2)CC1 (stereo not drawn) [Compound 233, 8-bromo-2-[1-(tetrahydrofuran-3-ylcarbonyl)piperidin-4-yl][1]benzofuro[3,2-d]pyrimidin-4(3H)-one] | < 10 µM | < 10 µM |
| O=c1[nH]c(CN2CCC(F)(F)C2)nc2c1oc1ccc(Br)cc12 [Compound 318, 8-bromo-2-[(3,3-difluoropyrrolidin-1-yl)methyl][1]benzofuro[3,2-d]pyrimidin-4(3H)-one] | < 10 µM | < 10 µM |
| O=C(O)Cc1nc2c(oc3ccc(Br)cc32)c(=O)[nH]1 [Compound 310, (8-bromo-4-oxo-3,4-dihydro[1]benzofuro[3,2-d]pyrimidin-2-yl)acetic acid] | < 10 µM | < 10 µM |
